In patent US8748445B2, “Methods for treating glioma” (The UAB Research Foundation, priority 2004, dated 2014):
Entries after “also recorded” stand apart in the source; their conditions may differ.

Assays:
[1] = system: cortical neuronal cultures; assay: survival of cortical neuronal cultures; type: cell-based; conditions: (S)-4-CPG 0.25 mM and 0.5 mM (FIG. 3C); sulfasalazine data not shown
cortical astrocytes [2] = assay: 35S-labeled cystine uptake in cortical astrocytes; type: cell-based; parameters: dose or concentration left out as unconfirmed; conditions: compared with D-54MG glioma cells (FIG. 2B)
Text: System Xc is a glutamate-cystine exchanger and can therefore be inhibited if the outward directed gradient for glutamate is eliminated by exposure to high concentrations of extracellular glutamate. The principal hypothesis in this study is that system Xc serves as a pipeline for cellular cystine uptake, with glutamate release being an obligatory by-product. Cystine uptake is the rate-limiting step for the synthesis of GSH, which is the main intracellular antioxidant that protects cells from oxidative stress and resulting reactive oxygen species (ROS) (Jefferies et al., 2003).

glioma cells [3] = assay: cell cycle: total DNA content by flow cytometry (propidium iodide); type: cell-based, human; conditions: 0.5 mM (FIG. 4D)
Procedure: To test whether inhibition of cystine uptake affects a specific stage of the cell cycle, changes in total DNA content were measured using flow cytometry following treatment with 0.5 mM (S)-4-CPG and 0.5 mM sulfasalazine. Cells were fixed with para-formaldehyde and stained with the nuclear marker propidium iodide after incubation with drugs.

caspase-3 = assay: activated caspase-3 by Western blot analysis; type: cell-based, human; conditions: 0.5 mM; D-54MG cells (FIG. 5C)
Procedure: (§1) Because an accumulation of ROS can lead to apoptotic cell death, the ability of system Xc inhibitors to induce apoptosis in glioma cells was examined. […] Often apoptosis is dependent on caspase activities, so it was determined whether the system Xc inhibitors induce activated caspase-3, which is the convergent enzyme in the caspase-dependent signaling cascade. […] With 1 mM sulfasalazine, 90% of cells died over the 5 d incubation (FIG. 5E).

glioma cells [4] = assay: total intracellular glutathione content in glioma cells; type: cell-based, human
Procedure: (§2) To determine if limiting cystine uptake via system Xc reduces the total intracellular glutathione content (GSH and glutathione disulfide), intracellular glutathione concentrations were determined in the presence and absence of sulfasalazine.

cortical astrocytes [5] = assay: intracellular glutathione in cortical astrocytes; type: cell-based; conditions: sulfasalazine 50-500 μM; compared to glioma cells (FIG. 2E)
Procedure: as §2

glioma cells [6] = assay: cell death by flow cytometry using the Live/Dead assay kit; type: cell-based, human; conditions: 1 mM, 5 d incubation (FIG. 5E)
Procedure: as §1

[7] = system: glioma cell lines (D-54MG, U-87MG, U-251MG and STTG1) and a primary glioma culture (GBM62); assay: growth curves of glioma cells over 5 days; type: cell-based, human; conditions: 5 days; 0.1 and 0.25 mM (S)-4-CPG, 0.25 and 0.5 mM sulfasalazine; all glioma cell lines and GBM62 (FIGS. 3A, 3B)
Procedure: To examine whether the depletion of glutathione via inhibition of cystine uptake by system Xc affects the growth of glioma cells, growth curves for 4 glioma cell lines (D-54MG, U-87MG, U-251MG and STTG1) and a primary glioma culture (GBM62) were established.
In the presence of 0.25 mM (S)-4-CPG, growth of D-54MG cells indeed recovered by the addition of fourfold excess of cystine (FIG. 3E), but not with glutamate (FIG. 3D), the second substrate for system Xc.

D-54MG glioma cells = assay: BrdU incorporation, immunocytochemical studies; type: cell-based, human; conditions: DAPI co-staining (FIG. 4B)
Procedure: BrdU incorporation was measured using an ELISA-based assay. D-54MG cells were grown in the presence or absence of inhibitors for 24 hours and pulsed for 2 hours with BrdU. The cells were cultured for an additional 48 hours and the amount of incorporated BrdU was measured using alkaline phosphatase conjugated to anti-BrdU antibodies. […] The inhibition of DNA synthesis was also seen in immunocytochemical studies.

glioma xenograft tumors = assay: tumor size by hematoxylin-eosin staining of brain sections; type: in vivo, mice; conditions: 8 mg in 1 ml saline twice per day; 30 days after tumor induction (FIGS. 7C, 7D)
Procedure: To validate that these experiments represent, at least qualitatively, changes in tumor size, two animals each from the control and treatment groups were sacrificed at 30 days after tumor induction. Histological sections were obtained and traditional hematoxylin-eosin (H&E) staining were performed. FIGS. 7C and 7D show the results for the control group (saline treatment only) and the treatment group (8 mg sulfasalazine in 1 ml saline, twice per day).

D54-MG glioma cells = assay: intracranial D54-MG luciferase xenograft, bioluminescence imaging; type: in vivo, CB-17 scid mice
Procedure: Therefore, the effect of inhibiting system Xc in an animal model of malignant glioma was examined. In these experiments, both (S)-4-CPG or sulfasalazine were used. […] In the described in vivo experiments, human gliomas were xenografted into the cranium of either female CB-17 scid mice or nude mice, both of which are frequently used animal models for malignant gliomas. The intracranial growth of tumors was assessed using the recently developed […] methodology for visualizing tumor growth.
In one set of in vivo experiments, D54-MG glioma cells were stably transfected with the firefly luciferase gene under the control of the CMV promoter. One-half million cells were stereotactically implanted into the cranium of each CB-17 scid mouse. After 7 days, animals were randomized into three groups of 12 animals each. The control group received an intraperitoneal injection of 1 ml dose of saline twice daily. The two test groups received an 8 mg dose of sulfasalazine twice daily for either 1 or 3 weeks. Animals were imaged for tumor size, typically once per week, using a bioluminescence imaging system (IVIS system; Xenogen). Light emission from the tumor regions (in relative photons/second) were quantified using Living Image, version 2.20.1, software provided by Xenogen and plotted as a function of time.

U87-MG = assay: intracranial U87-MG luciferase xenograft, bioluminescence imaging; type: in vivo, CB-17 nude mice; conditions: 8 mg twice daily for 3 weeks, then 1 dose per day (FIG. 7B)
Procedure: These U87-MG cells were similarly implanted intracranially as described above, but this time into CB-17 nude mice. After 7 days, animals were randomized into […]. The control group received an intraperitoneal injection of 1 ml dose of saline twice daily. The two test groups received an 8 mg dose of sulfasalazine (in 1 ml saline) twice daily for 3 weeks, followed by 1 dose per day of 8 mg sulfasalazine thereafter. Animals were imaged for tumor size, typically once per week, using a bioluminescence imaging system (IVIS system; Xenogen). Light emission from the tumor regions (in relative photons/second) were quantified using Living Image, version 2.20.1, software provided by Xenogen and plotted as a function of time.

O=C(O)c1cc(/N=N/c2ccc(S(=O)(=O)Nc3ccccn3)cc2)ccc1O [sulfasalazine]
survival/growth of cortical neuronal cultures [1]: Neither (S)-4-CPG (FIG. 3C) nor sulfasalazine (data not shown) affected
inhibition of cystine uptake in cortical astrocytes (cortical astrocytes [2]): to a significantly lesser degree; also recorded: only a limited inhibition
cell cycle distribution (total DNA content) (glioma cells [3]): a reduction of cells in G2 phase and an increase in cells in S phase
activated form of caspase-3 (caspase-3): increased the activated form of caspase-3
intracellular glutathione concentration (glioma cells [4]; 0.25 mM, glioma cells D-54MG, U-87MG, U-251MG and primary glioma culture GBM64 (FIG. 2F)): depleted intracellular glutathione concentration
intracellular glutathione concentration (glioma cells [4]; D-54MG glioma cells, sulfasalazine 50-500 μM, time and dose-dependent, after 24 h (FIG. 2D)): almost complete glutathione depletion
intracellular glutathione concentration in astrocytes (cortical astrocytes [5]): a smaller effect
cells died (glioma cells [6]): 90%
growth of glioma cells [7]: dose-dependent growth inhibitions
incorporation of BrdU, immunocytochemistry (D-54MG glioma cells): virtually abolished incorporation of BrdU
tumor size versus control group, H&E staining (glioma xenograft tumors): significantly smaller
tumor expansion (relative bioluminescence) (D54-MG glioma cells; 8 mg intraperitoneal twice daily for either 1 or 3 weeks, from day 7 (FIG. 7A)): significantly reduced
tumor growth after retreatment (D54-MG glioma cells; retreated at day 53 for 3 days after termination of treatment (FIG. 7A)): again reduced after retreatment
tumor growth by bioluminescence imaging (U87-MG): reduce tumor growth significantly
